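Values below derive from 48-hour exposures of cells grown in 96-well plates, with endpoints linearly interpolated between the two concentrations bracketing the appropriate inhibition level. The concentration for full growth arrest is given as TGI.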

Data on 14 molecules can be found in PubChem BioAssay (NCI).

Among the test systems are A549 NSCLC; UO-31 renal; SF-295 CNS; CCRF-CEM leukemia; SK-OV-3 ovarian; SN12C renal; U251 CNS; OVCAR-4 ovarian.
Common to all, as to assay: growth of human tumour cells (NCI), 48 h

On to `Cc1ccccc1NC(=O)C(=O)C(C#N)c1ccc(Cl)cc1` (centres undefined), for which the TGI in the assay on A549 NSCLC, in the assay with UO-31 renal, in the assay on SF-295 CNS, in the assay on CCRF-CEM leukemia, in the assay with SK-OV-3 ovarian and in the assay with SN12C renal was over 100 µM throughout. Also, the TGI in the assay on U251 CNS is over 100 µM.
Regarding `CC(C)(C)OC1=C(OC(C)(C)C)C(O)(c2ccccc2)C1=O` (centres undefined), the TGI with A549 NSCLC, with UO-31 renal, in the assay on OVCAR-4 ovarian, in the assay on SF-295 CNS, in the assay with CCRF-CEM leukemia and in the assay with SK-OV-3 ovarian was over 100 µM in each case. The TGI with SN12C renal and in the assay on U251 CNS was over 100 µM throughout.
Take `Cc1ccc(NC(=O)c2cc3cc(N=Nc4ccc(Br)cc4)ccc3oc2=O)cc1`: the TGI in the assay with A549 NSCLC, in the assay on OVCAR-4 ovarian, in the assay with SF-295 CNS, in the assay with SK-OV-3 ovarian, with SN12C renal and with U251 CNS was over 100 µM each time.
Consider `COc1ccc(C2CC(=O)c3c(O)cc(O)cc3O2)cc1O` (centres undefined), for which the TGI in the assay on A549 NSCLC, in the assay with UO-31 renal, in the assay with OVCAR-4 ovarian, in the assay on SF-295 CNS, with CCRF-CEM leukemia and in the assay on SK-OV-3 ovarian was over 100 µM each time. In addition, the TGI in the assay on SN12C renal and in the assay on U251 CNS was over 100 µM each time.
`O=C(Nc1ccccc1-c1n[nH]c(=S)[nH]c1=O)C(F)(F)F`: the TGI in the assay with A549 NSCLC, in the assay on UO-31 renal, in the assay on OVCAR-4 ovarian, in the assay on SF-295 CNS, in the assay on CCRF-CEM leukemia and with SK-OV-3 ovarian was over 100 µM each time. In addition, the TGI with SN12C renal and with U251 CNS was over 100 µM in each case.
For the molecule `O=C(Nc1ccc(Cl)cc1Cl)C1C(=O)N(c2ccc(Cl)cc2Cl)C(=O)/C1=N\Nc1ccc([N+](=O)[O-])cc1[N+](=O)[O-]` (centres undefined), the TGI with A549 NSCLC, in the assay with UO-31 renal, in the assay with OVCAR-4 ovarian, with SF-295 CNS, in the assay on CCRF-CEM leukemia and in the assay on SK-OV-3 ovarian was over 100 µM in each case. In addition, the TGI with SN12C renal and with U251 CNS was over 100 µM each time.
`CS/C(=N\C(=S)N(C)C)N(c1ccccc1)c1nc(=[N+](C)C)ss1`: the TGI in the assay on A549 NSCLC is 22.3 µM; in the assay with UO-31 renal, over 100 µM; in the assay with OVCAR-4 ovarian, 24.7 µM; in the assay with SF-295 CNS, 57.4 µM; with CCRF-CEM leukemia, 8.45 µM; in the assay on SK-OV-3 ovarian, over 100 µM. In addition, the values for the TGI with SN12C renal and in the assay with U251 CNS were 37.9 µM and 20 µM, respectively.
Take `ON/N=C/c1cc2c(cc1Br)OCO2`: the TGI with A549 NSCLC, with SF-295 CNS, in the assay with CCRF-CEM leukemia, in the assay with SK-OV-3 ovarian, in the assay on SN12C renal and in the assay on U251 CNS was over 386 µM throughout.
Take `CCOC(=O)Nc1cc2nnc(-c3ccccc3)nc2c(N)n1`: the TGI was 35.1 µM with A549 NSCLC; 84.7 µM in the assay on UO-31 renal; 69.2 µM with OVCAR-4 ovarian; 15.2 µM in the assay on SF-295 CNS; over 100 µM in the assay with CCRF-CEM leukemia; 39.9 µM in the assay with SK-OV-3 ovarian. In addition, the TGI in the assay with SN12C renal and with U251 CNS was over 100 µM throughout.
Consider `COC(=O)C1=C(c2ccc(OC)c(OC)c2)OC(c2ccc(OC)c(OC)c2)C1` (centres undefined), for which the TGI in the assay on A549 NSCLC is over 100 µM; in the assay on UO-31 renal, over 100 µM; with OVCAR-4 ovarian it was over 100 µM; in the assay with SF-295 CNS, over 100 µM; in the assay with CCRF-CEM leukemia, over 100 µM; in the assay with SK-OV-3 ovarian it was 96.7 µM. The TGI with SN12C renal and in the assay on U251 CNS was over 100 µM throughout.
As for `CC(NS(=O)(=O)c1ccc([N+](=O)[O-])cc1)C(=O)O` (centres undefined), the TGI with A549 NSCLC, in the assay with UO-31 renal, in the assay with OVCAR-4 ovarian, with SF-295 CNS, in the assay with CCRF-CEM leukemia and in the assay on SK-OV-3 ovarian was over 100 µM in each case. Moreover, the TGI in the assay with SN12C renal and with U251 CNS was over 100 µM throughout.
`Cc1ccc(S(=O)(=O)c2c(N)c3nc4ccccc4n3c3nc4ccccc4nc23)cc1`: the TGI with A549 NSCLC, in the assay on UO-31 renal, in the assay with OVCAR-4 ovarian, with SF-295 CNS, in the assay with CCRF-CEM leukemia and with SK-OV-3 ovarian was over 100 µM throughout. Moreover, the TGI in the assay on SN12C renal and with U251 CNS was over 100 µM in each case.
Turning to `O=C(/C=C/c1ccc(OCCCOc2ccc(/C=C/C(=O)c3ccccc3)cc2)cc1)c1ccccc1`, the TGI in the assay with A549 NSCLC, in the assay on UO-31 renal, with OVCAR-4 ovarian, in the assay on SF-295 CNS, with CCRF-CEM leukemia and in the assay with SN12C renal was over 100 µM in each case.
Take `CN(C)c1ccc2c(=O)c3ccccc3oc2n1`: the TGI with A549 NSCLC, in the assay with UO-31 renal, in the assay with OVCAR-4 ovarian, in the assay with SF-295 CNS, in the assay with CCRF-CEM leukemia and with SK-OV-3 ovarian was over 100 µM in each case. Further, the TGI with SN12C renal was over 100 µM.
